Among the data in US20250368666A1, “INDAZOLE COMPOUNDS” (TYRA BIOSCIENCES, INC., priority 2022, published 2025) are IC50 and Kd values, retold here.

What is called pIC50 is −log10 of the IC50, conventionally taken in molar units. A high value points to a low IC50. Broadly, the Kd is the free concentration of one partner at which half of the binding sites on the other are occupied at equilibrium, for simple one-to-one binding.

pIC50: −log10 of the molar value. Where a name gives a salt, the structure may show the parent alone.

Assay [1] relates to KATO-III cell line (FGFR2 amplification). As to the kind of experiment: Cancer cell line cell viability assay (Cell Titer-Glo), 72 hr. The format is cell-based. As to conditions: Homo sapiens, KATO III. The essentials: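 Cells seeded at 5,000-20,000/well, incubated overnight, then treated with a 9-dose, 4-fold dilution series from 3 μM in triplicate at 37° C, 5% CO2. Viability read by Cell Titer-Glo 2.0 luminescence as percent of DMSO control; IC50 from 4-parameter variable-slope sigmoidal fit.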
Background: ATP-based viability assays read luminescence as a measure of living cells.

The subject of assay [2] is KG-1 cell line (FGFR 1-fusion). The description is as above. It counts as cell-based. The following applies: Homo sapiens, KG-1, KG-1 cell line (FGFR1-fusion). A digest of the protocol:
(§1)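 Luminescent ATP read-out (Cell Titer-Glo 2.0) after compound exposure, normalised to DMSO-only wells. Dosing: 9 concentrations, 4-fold steps, top 3 μM, triplicates. IC50 derived by log(inhibitor) vs. response 4-parameter fit.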

Assay [3] relates to RT112/84 cell line (FGFR3-fusion). The description is as above. It counts as cell-based. As to conditions: Homo sapiens, RT112/84, RT112/84 cell line (FGFR3-fusion). A digest of the protocol: as §1
Assay [4] concerns MDA-MB-453 cell line (FGFR4-Y367C). As to the kind of experiment: Cancer cell line cell viability assay (Cell Titer-Glo), 120 hr. The format is cell-based. The following applies: Homo sapiens. A digest of the protocol: as §1
The next assay addresses T1, FGFR1 (Homo sapiens, UniProt P11362).
T1 construct: made in house; host or cells: E. coli (BL21-derived), T7 phage
As to the kind of experiment: Kinase binding assay (kinase-tagged T7 phage, affinity beads, qPCR), Kd. The following applies: read-out: FGFR1 (Kd nM). A digest of the protocol: (§2)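 Competition binding of compounds against kinase-tagged T7 phage captured on immobilised biotinylated ligand beads; bead-bound kinase quantified by qPCR of eluates. 11-point 3-fold dilution, 0.9% DMSO final; Kd from Hill fit with slope fixed at −1.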
On the technique in general: Quantitative PCR measures a nucleic acid by following its amplification.

For a further assay, the target named is T2, FGFR3 (Homo sapiens, UniProt P22607).
T2 construct: made in house; host or cells: E. coli (BL21-derived), T7 phage
The assay is described as above. The following applies: read-out: FGFR3 (Kd nM). The essentials:
as §2

T2 sequence (P22607 23-806): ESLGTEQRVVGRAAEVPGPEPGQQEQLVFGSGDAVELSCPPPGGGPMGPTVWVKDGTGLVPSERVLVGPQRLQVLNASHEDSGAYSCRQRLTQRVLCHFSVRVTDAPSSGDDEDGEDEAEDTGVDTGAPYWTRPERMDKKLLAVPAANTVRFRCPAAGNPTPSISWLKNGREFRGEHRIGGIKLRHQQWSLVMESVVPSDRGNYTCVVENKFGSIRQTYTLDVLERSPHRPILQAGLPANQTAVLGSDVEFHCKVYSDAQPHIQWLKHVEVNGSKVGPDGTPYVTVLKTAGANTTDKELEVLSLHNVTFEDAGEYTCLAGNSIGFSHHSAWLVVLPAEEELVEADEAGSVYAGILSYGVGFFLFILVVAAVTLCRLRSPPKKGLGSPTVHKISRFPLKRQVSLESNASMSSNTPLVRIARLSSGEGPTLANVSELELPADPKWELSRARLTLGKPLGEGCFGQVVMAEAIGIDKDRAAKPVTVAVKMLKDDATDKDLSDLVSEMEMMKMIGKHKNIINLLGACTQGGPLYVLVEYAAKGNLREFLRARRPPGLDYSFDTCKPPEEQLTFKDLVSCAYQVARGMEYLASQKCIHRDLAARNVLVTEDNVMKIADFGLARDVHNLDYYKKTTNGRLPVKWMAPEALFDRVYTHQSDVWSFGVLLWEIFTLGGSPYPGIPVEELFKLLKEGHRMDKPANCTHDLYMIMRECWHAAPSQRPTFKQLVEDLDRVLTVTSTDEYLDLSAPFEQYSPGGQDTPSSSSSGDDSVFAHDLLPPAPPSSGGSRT
T1 sequence (P11362 22-822): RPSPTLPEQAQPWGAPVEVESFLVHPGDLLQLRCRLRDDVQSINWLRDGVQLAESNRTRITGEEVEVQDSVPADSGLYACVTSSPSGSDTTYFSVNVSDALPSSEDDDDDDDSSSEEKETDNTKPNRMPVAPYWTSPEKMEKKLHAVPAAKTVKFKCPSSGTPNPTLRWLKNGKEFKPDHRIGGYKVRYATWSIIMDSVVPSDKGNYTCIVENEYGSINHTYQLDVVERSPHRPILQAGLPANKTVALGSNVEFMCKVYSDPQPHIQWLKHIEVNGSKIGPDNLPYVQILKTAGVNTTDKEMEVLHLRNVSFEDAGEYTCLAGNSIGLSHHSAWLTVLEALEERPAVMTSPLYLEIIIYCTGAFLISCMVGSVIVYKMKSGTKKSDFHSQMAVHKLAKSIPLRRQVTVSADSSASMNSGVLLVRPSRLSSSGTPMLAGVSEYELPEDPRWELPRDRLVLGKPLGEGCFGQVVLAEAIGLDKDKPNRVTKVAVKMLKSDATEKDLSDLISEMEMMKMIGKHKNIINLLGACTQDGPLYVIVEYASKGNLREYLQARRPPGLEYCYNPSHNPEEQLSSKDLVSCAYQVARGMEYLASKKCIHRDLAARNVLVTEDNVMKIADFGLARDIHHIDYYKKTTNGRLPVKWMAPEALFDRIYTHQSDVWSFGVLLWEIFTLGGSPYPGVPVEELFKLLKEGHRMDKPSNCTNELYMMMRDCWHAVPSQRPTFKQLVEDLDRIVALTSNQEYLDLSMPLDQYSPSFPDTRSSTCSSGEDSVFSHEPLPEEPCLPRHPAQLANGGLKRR

In the case of `CCC1(NCC2CC2)CN(c2ncc(-c3n[nH]c4ccc(O[C@H](C)c5c(Cl)cncc5Cl)cc34)cc2F)C1` [Example 247, N-(cyclopropylmethyl)-1-[5-[5-[(1R)-1-(3,5-dichloro-4-pyridyl)ethoxy]-1H-indazol-3-yl]-3-fluoro-2-pyridyl]-3-ethyl-azetidin-3-amine dihydrochloride], the pIC50 in assay [1] is 6.70 to 7.30; in assay [2], 6.70 to 7.30; in assay [3], 7.30 to 10.00; in assay [4], 6.70 to 7.30. In addition, the Kd at FGFR1 and at FGFR3 was 1 to 50 nM in each case.

Take `CC(C)CC1(N)CN(c2ncc(-c3n[nH]c4ccc(O[C@H](C)c5c(Cl)cncc5Cl)cc34)cc2F)C1` [Example 258, (R)-1-(5-(5-(1-(3,5-dichloropyridin-4-yl)ethoxy)-1H-indazol-3-yl)-3-fluoropyridin-2-yl)-3-isobutylazetidin-3-amine]: the pIC50 in assay [1] is 6.70 to 7.30; in assay [2], 6.00 to 6.70; in assay [3], 7.30 to 10.00; in assay [4], 6.00 to 6.70. For the same molecule, the Kd at FGFR1 and at FGFR3 was 1 to 50 nM each time.

Turning to `COCCC1(N)CN(c2ncc(-c3n[nH]c4ccc(O[C@H](C)c5c(Cl)cncc5Cl)cc34)cc2F)C1` [Example 273, (R)-1-(5-(5-(1-(3,5-dichloropyridin-4-yl)ethoxy)-1H-indazol-3-yl)-3-fluoropyridin-2-yl)-3-(2-methoxy-ethyl)azetidin-3-amine], the pIC50 in assay [1], in assay [2], in assay [3] and in assay [4] was 7.30 to 10.00 in each case. Further, the Kd on FGFR1 and on FGFR3 was 1 to 50 nM throughout.

Turning to `Cc1ncc(Cl)c([C@@H](C)Oc2ccc3[nH]nc(-c4cnc(N5CC(CC#N)(NCC6CC6)C5)c(F)c4)c3c2)c1Cl` [Example 250, 2-[3-(cyclopropylmethyl-amino)-1-[5-[5-[(1R)-1-(3,5-di-chloro-2-methyl-4-pyridyl)ethoxy]-1H-indazol-3-yl]-3-fluoro-2-pyridyl]azetidin-3-yl]acetonitrile], the pIC50 was 6.70 to 7.30 in assay [1], 6.00 to 6.70 in assay [2], 7.30 to 10.00 in assay [3] and 6.00 to 6.70 in assay [4]. The Kd at FGFR1 was 50 to 300 nM; on FGFR3, 1 to 50 nM.

Regarding `C[C@@H](Oc1ccc2[nH]nc(-c3cnc(N4CC(N)(C5CCC5)C4)c(F)c3)c2c1)c1c(Cl)cncc1Cl` [Example 256, (R)-3-cyclobutyl-1-(5-(5-(1-(3,5-dichloropyridin-4-yl)ethoxy)-1H-indazol-3-yl)-3-fluoropyridin-2-yl)azetidin-3-amine], the negative-log IC50 (pIC50) in assay [1] was 6.70 to 7.30; in assay [2], 6.70 to 7.30; in assay [3] it was 7.30 to 10.00; in assay [4], 6.70 to 7.30. The Kd on FGFR1 and on FGFR3 was 1 to 50 nM throughout.

`CC(C)C1(N)CN(c2ncc(-c3n[nH]c4ccc(O[C@H](C)c5c(Cl)cncc5Cl)cc34)cc2F)C1` [Example 255, (R)-1-(5-(5-(1-(3,5-dichloropyridin-4-yl)ethoxy)-1H-indazol-3-yl)-3-fluoropyridin-2-yl)-3-isopropylazetidin-3-amine]: the pIC50 in assay [1] was 7.30 to 10.00; in assay [2], 6.70 to 7.30; in assay [3], 7.30 to 10.00; in assay [4], 6.70 to 7.30. Also, the dissociation constant (Kd) on FGFR1 and at FGFR3 was 1 to 50 nM in each case.

Consider `C[C@@H](Oc1ccc2[nH]nc(-c3cnc(N4CC(N)(CCF)C4)c(F)c3)c2c1)c1c(Cl)cncc1Cl` [Example 284, (R)-1-(5-(5-(1-(3,5-dichloropyridin-4-yl)ethoxy)-1H-indazol-3-yl)-3-fluoropyridin-2-yl)-3-(2-fluoroethyl)azetidin-3-amine], for which the negative-log IC50 (pIC50) was 7.30 to 10.00 in assay [1], 6.70 to 7.30 in assay [2], 7.30 to 10.00 in assay [3] and 7.30 to 10.00 in assay [4]. The Kd at FGFR1 and on FGFR3 was 1 to 50 nM throughout.

In the case of `C[C@@H](Oc1ccc2[nH]nc(-c3ccc(N4CC(C)(OCCN5CCCC5)C4)nn3)c2c1)c1c(Cl)cncc1Cl` [Example 269, (R)-5-(1-(3,5-dichloropyridin-4-yl)ethoxy)-3-(6-(3-methyl-3-(2-(pyrrolidin-1-yl)ethoxy)azetidin-1-yl)pyridazin-3-yl)-1H-indazole], the pIC50 is 7.30 to 10.00 in assay [1], 6.70 to 7.30 in assay [2], 7.30 to 10.00 in assay [3] and 6.00 to 6.70 in assay [4]. Besides, the Kd at FGFR1 and on FGFR3 was 1 to 50 nM throughout.

As to `C[C@@H](Oc1ccc2[nH]nc(-c3cnc(N4CC(N)(Cc5cnn(C)c5)C4)c(F)c3)c2c1)c1c(Cl)cncc1Cl` [Example 290, (R)-1-(5-(5-(1-(3,5-dichloropyridin-4-yl)ethoxy)-1H-indazol-3-yl)-3-fluoropyridin-2-yl)-3-((1-methyl-1H-pyrazol-4-yl)methyl)azetidin-3-amine], the negative-log IC50 (pIC50) is 6.70 to 7.30 in assay [1], 6.70 to 7.30 in assay [2], 7.30 to 10.00 in assay [3] and 6.70 to 7.30 in assay [4]. For the same molecule, the Kd on FGFR1 and on FGFR3 was 1 to 50 nM throughout.

On to `C[C@@H](Oc1ccc2[nH]nc(-c3ccc(N4CC(N)(Cc5ccnn5C)C4)nn3)c2c1)c1c(Cl)cncc1Cl` [Example 281, (R)-1-(6-(5-(1-(3,5-dichloropyridin-4-yl)ethoxy)-1H-indazol-3-yl)pyridazin-3-yl)-3-((1-methyl-1H-pyrazol-5-yl)methyl)azetidin-3-amine], for which the pIC50 in assay [1] is 7.30 to 10.00; in assay [2], 6.70 to 7.30; in assay [3], 7.30 to 10.00; in assay [4], 6.00 to 6.70. The Kd at FGFR1 and at FGFR3 was 1 to 50 nM throughout.

As to `C[C@@H](Oc1ccc2[nH]nc(-c3cnc(N4CC(N)(CCO)C4)c(F)c3)c2c1)c1c(Cl)cncc1Cl` [Example 259, (R)-2-(3-amino-1-(5-(5-(1-(3,5-dichloropyridin-4-yl)ethoxy)-1H-indazol-3-yl)-3-fluoropyridin-2-yl)azetidin-3-yl)ethanol], the pIC50 is 7.30 to 10.00 in assay [1], 6.70 to 7.30 in assay [2], 7.30 to 10.00 in assay [3] and 7.30 to 10.00 in assay [4]. The Kd on FGFR1 and on FGFR3 was 1 to 50 nM throughout.

On to `C=CCC1(N)CN(c2ncc(-c3n[nH]c4ccc(O[C@H](C)c5c(Cl)cncc5Cl)cc34)cc2F)C1` [Example 264, (R)-3-ally1-1-(5-(5-(1-(3,5-dichloropyridin-4-yl)ethoxy)-1H-indazol-3-yl)-3-fluoropyridin-2-yl)azetidin-3-amine], for which the pIC50 was 6.70 to 7.30 in assay [1], 6.70 to 7.30 in assay [2], 7.30 to 10.00 in assay [3] and 6.70 to 7.30 in assay [4]. Further, the Kd at FGFR1 and on FGFR3 was 1 to 50 nM throughout.

As to `C[C@@H](Oc1ccc2[nH]nc(-c3ccc(N4CC(N)(CCC#N)C4)nn3)c2c1)c1c(Cl)cncc1Cl` [Example 285, (R)-3-(3-amino-1-(6-(5-(1-(3,5-dichloropyridin-4-yl)ethoxy)-1H-indazol-3-yl)pyridazin-3-yl)azetidin-3-yl)propanenitrile], the pIC50 in assay [1] is 7.30 to 10.00; in assay [2] it was 7.30 to 10.00; in assay [3], 7.30 to 10.00; in assay [4] it was 6.00 to 6.70. Also, the Kd at FGFR1 and at FGFR3 was 1 to 50 nM throughout.

In the case of `C[C@@H](Oc1ccc2[nH]nc(-c3cnc(N4CC(N)(CC(C)(C)O)C4)c(F)c3)c2c1)c1c(Cl)cncc1Cl` [Example 266, (R)-1-(3-amino-1-(5-(5-(1-(3,5-dichloropyridin-4-yl)ethoxy)-1H-indazol-3-yl)-3-fluoropyridin-2-yl)azetidin-3-yl)-2-methylpropan-2-ol], the pIC50 in assay [1] is 6.70 to 7.30; in assay [2] it was 6.00 to 6.70; in assay [3], 7.30 to 10.00; in assay [4] it was less than 6.00. Besides, the Kd at FGFR1 and on FGFR3 was 1 to 50 nM throughout.

With `C[C@@H](Oc1ccc2[nH]nc(-c3cnc(N4CC(CC#N)(N5CCCC5)C4)c(F)c3)c2c1)c1c(Cl)cncc1Cl` [Example 251, (R)-2-(1-(5-(5-(1-(3,5-dichloropyridin-4-yl)ethoxy)-1H-indazol-3-yl)-3-fluoropyridin-2-yl)-3-(pyrrolidin-1-yl)azetidin-3-yl)acetonitrile], the pIC50 in assay [1] was 7.30 to 10.00; in assay [2], 6.70 to 7.30; in assay [3] it was 7.30 to 10.00; in assay [4], 6.70 to 7.30. In addition, the Kd at FGFR1 and at FGFR3 was 1 to 50 nM each time.

In the case of `C[C@@H](Oc1ccc2[nH]nc(-c3ccc(N4CC(N)(Cc5cnn(C)c5)C4)nn3)c2c1)c1c(Cl)cncc1Cl` [Example 289, (R)-1-(6-(5-(1-(3,5-dichloropyridin-4-yl)ethoxy)-1H-indazol-3-yl)pyridazin-3-yl)-3-((1-methyl-1H-pyrazol-4-yl)methyl)azetidin-3-amine], the pIC50 in assay [1] was 6.70 to 7.30; in assay [2], 6.00 to 6.70; in assay [3] it was 7.30 to 10.00; in assay [4] it was 6.00 to 6.70. Further, the Kd at FGFR1 and at FGFR3 was 1 to 50 nM in each case.
